Measurements: US20220354911A1, “TREATMENT OF TUMORS BY A COMBINATION OF AN ONCOLYTIC ADENOVIRUS, A CDK4/6 INHIBITOR AND A FURTHER THERAPEUTICALLY ACTIVE AGENT” (KLINIKUM RECHTS DER ISAR DER TECHNISCHEN UNIVERSITÄT MÜNCHEN, priority 2019, published 2022)

Key:
[1] = system: SK-N-MC cells; test: Potency assay (SRB), XVir-N-31, Abemaciclib and JQ-1; type: cell-based; settings: CDK 4/6 (Abemaciclib) resistant SK-N-MC cells, 200 nM Abemaciclib + 500 nM JQ-1, XVir-N-31, 5 days post infection
Procedure: 100,000 SK-N-MC cells/well were seeded in 12-well plates and grown in RPMI Medium containing 10% FCS at 5% CO2 at 37° C. Cells were treated with 200 nM Abemaciclib+500 nM JQ-1 24 hours before and again 1 hour post infection by adding appropriate amount to the medium. Infection of XVir-N-31 took place in 500 μl in RPMI Medium without serum. SRB-Staining took place 5 days post infection. Mock treated cells were set 100% cell survival.

[2] = system: XVir-N-31; test: XVir-N-31 fiber DNA qPCR in glioblastoma cells, JQ1 and Ribociclib; type: cell-based, Mastadenovirus, Type C, Serotype 5; settings: U87 24 h.p.i., LN229 and T98G 48 h.p.i.
Procedure: 1×10^5 cells were seeded in 6 well plates in DMEM medium. The following day the cells were treated with the 500 nM LEE011 and 50 nM JQ1. At the next morning the cells were infected with 20 MOI for U87 and LN229, and 50 MOI for T98G respectively. One hour after infection DMEM Medium containing the inhibitors was added onto the cells. After each time point (4, 24, 48 hours) the cells were washed once with PBS and 200 μl of SDS DNA Lysis Buffer was added. The cells were incubated with Proteinase K for 1 hour before undergoing a phenol-chloroform-isoamylalcohol purification. The DNA was diluted in 1×TE buffer and the concentration of the DNA was determined using a Nanodrop. For each sample a solution of 10 ng/μl was prepared and a RT-qPCR using 50 ng of DNA and a GoTaq Master mix. Specific Fiber forward and reverse primers were used and for the calculation of the Δ ct value specific Actin primers were used as well. For each sample 3 Fiber and 2 Actin values were measured. The calculation was done in excel and each 24 and 48 hours was calculated based on its 4 hours value (initial viral entry, before replication).

[3] = system: LN229 cells; test: Western blot of XVir-N-31 infected LN229 cells, LEE011 and JQ1; type: cell-based
Procedure: 2.5×10^5 LN229 cells were seeded in 10 cm plates in DMEM medium. The following day the cells were treated with 500 nM LEE011 and 200 nM JQ1 or a combination of both. At the next morning the cells were infected with XVir-N-31 at 20 MOI. One hour after infection DMEM Medium containing the inhibitors was added on the cells. After each time point (24, 48, 72 hours) the cells were put on ice, washed twice with ice-cold PBS and 300 μl of SDS Protein Lysis Buffer was added. The cells were transferred to reaction tubes and the DNA sheared with a syringe and a needle and the supernatant transferred for further use after centrifugation. The protein concentration was measured with a BCA assay and samples with 4× Lämmli:DTT 6:1 and a concertation of 20 μg were produced and transferred to a 10% SDS gel. The gel electrophoresis started at 90V and was increased to 150V after the ladder started to separate. The proteins on the gel were blotted to a membrane for 2 hours at 100V and blocked in 5% milk in TBS-T for 1 hour at RT. After washing in TBS-T, the first antibody was added according to the manufacturer's information over night at 4° C. The used antibodies were directed to GAPDH, E1A, DBP, E2F1, Rb, pRb for all time points, and caspase 3 and the full length and cleaved version of PARP additionally for the 72 hours samples. The next day, the washing was repeated and the secondary antibody added for 1 hour at RT. Following the washing, ECL was used to image the chemiluminescence by the ChemiDoc™ MP Imaging System.

[4] = system: XVir-N-31; test: Hexon Titer test, particle formation of XVir-N-31 in UMUC-3 cells; type: cell-based, Mastadenovirus, Type C, Serotype 5
Procedure: The production of viral particles was analyzed via immunohistochemistry-staining of hexon proteins (Hexon Titer test). Therefor, 2×10^5 adherent HEK293 cells per well were seeded in 24-well plates. Cell cultures samples collected after indicated time-points post infection and indicated co-treatment with JQ-1 were pretreated with three cycles thaw-freeze to release viral particles from cells and then serially diluted. The HEK293 cells were infected in volumes of either 50 μl or 10 μl per sample. The plates were then incubated for 40 h at 37° C. and 10% CO2 before checking for detectable cytopathic effects. The medium was aspirated, and the plates were dried for 5-10 min before fixing the cells by adding ice-cold methanol for 10 min at −20° C. The wells were washed twice with PBS+1% BSA. The primary antibody (goat anti-hexon, 1:500) was added and the plates were incubated for 1 h at 37° C. before washing it twice with PBS+1% BSA. Next, the secondary antibody (Rabbit Anti-Goat HRP conjugate, 1:1000) was added and incubated for 1 h at 37° C. Again, the wells were washed twice with PBS containing 1% BSA before the DAB solution was added. After 30 min incubation, 10 different random fields of view (f.o.v.) per well were counted under the 20× objective of a microscope. Counting iterations were averaged and according to this formula, infectious particles per ml were calculated: […]

[5] = system: E1A, E1B55k, DBP, E40rf6 and Hexon; test: Western blot of viral protein expression kinetics in UMUC-3 cells with JQ-1; type: cell-based, Mastadenovirus, Type C, Serotype 5; settings: UMUC-3, 10 MOI
Procedure: 1×10^6 UMUC-3 cells were seeded in 10 cm plates in DMEM medium and 24 hours post seeding infected with 10 MOI XVir-N-31. 1 hour post infection, culturing media was either refilled by DMEM or DMEM spiked with 500 nM JQ-1. 12, 24, 36 and 48 h.p.i, lysates of total proteins were taken using an SDS-buffer. BCA Assay was applied to adjust equivalent protein concentrations. Then, protein samples were supplemented with Lämmli buffer and separated via SDS-PA gelelectrophoresis on 10% PA-Gels. Samples were blotted onto PVDF membranes using a BioRAD Wet Tank System. These membranes were blocked with TBS-Tween buffer containing 5% Skim milk powder for 1 hour at room temperature. Incubation with primary antibodies was conducted over night at 4° C. and with HRP-conjugated secondary antibodies for 1 hour at room temperature. Chemiluminescence was detected using ECL prime (Pierce) with the ChemiDoc Imaging System (BioRad). Figures were designed in Adobe® Illustrator and evaluation was performed with ImageLab.

[6] = LN229, with XVir-N-31, 48 hours post infection
[7] = LN229, with XVir-N-31, 72 hours post infection

## Cc1sc2c(c1C)C(c1ccc(Cl)cc1)=N[C@@H](CC(=O)OC(C)(C)C)c1nnc(C)n1-2 [JQ-1, thieno-triazolo-1-4-diazepine]
[1]
  cell killing on addition of JQ-1: did not increase cell killing
[2]
  XVir-N-31 replication (relative fiber DNA): high increase in replication
[3]; LN229, XVir-N-31 MOI 20, 500 nM LEE011 or/and 200 nM JQ-1, 24 hours post infection
  viral proteins E1A and DBP: increased
[3]; LN229, XVir-N-31 MOI 20, 500 nM LEE011 or/and 200 nM JQ-1, 48 hours post infection
  viral proteins E1A and DBP: increased
[3]; LN229, XVir-N-31 MOI 20, 500 nM LEE011 or/and 200 nM JQ-1, 72 hours post infection
  viral proteins E1A and DBP: increased
[3]; LN229, with XVir-N-31, 24 hours post infection
  cellular proteins Rb and pRb: remained inhibited
[3]; [6]
  E2F-1: stabilized
  cellular proteins Rb and pRb: remained inhibited
[3]; [7]
  E2F1: enhanced
  cellular protein Rb: decreased
[3]; XVir-N-31 infected LN229 cells, 72 hours post infection
  presence of cleaved PARP: increased
[4]; 500 nM JQ-1, 39, 49, 62 or 72 hpi
  particle formation of XVir-N-31: significantly increased
[4]; concurrent treatment with 500 nM JQ-1
  kinetic of XVir-N-31's particle formation: highly accelerated
[5]; 500 nM JQ-1
  Hexon expression: expressed in high levels in early time-points
[5]; 500 nM JQ-1 concurrent, 12, 24, 36 and 48 h.p.i
  absolute viral protein expression and kinetic of XVir-N-31 viral proteins (E1A, E1B55k, DBP and E40rf6): highly accelerated
